Assay results taken from patent publication US20100298141A1, “SUBSTITUTED PYRIDINE N-OXIDE HERBICIDES” (E. I. DU PONT DE NEMOURS AND COMPANY, priority 2007, published 2010).

Key:
pitted morningglory = experiment: Test F preemergence test; format: in vivo, Ipomoea lacunosa; conditions: scale 0 to 100
Method in brief: (§1)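 Test chemicals in a non-phytotoxic solvent mixture containing a surfactant were applied preemergence to sown seeds or postemergence to sugarcane plants. Treated plants and controls were held in a greenhouse for 14 to 21 days, then visually evaluated against controls.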

purple nutsedge = experiment: Test F preemergence test; format: in vivo, Cyperus rotundus; conditions: scale 0 to 100; for Plant response rating, Purple Nutsedge: Preemergence
Method in brief: as §1

itchgrass = experiment: Test F preemergence test; format: in vivo, Rottboellia cochinchinensis; conditions: scale 0 to 100
Method in brief: as §1

Italian ryegrass = experiment: Test F preemergence test; format: in vivo, Lolium multiflorum; conditions: scale 0 to 100
Method in brief: as §1

green foxtail = experiment: Test F preemergence test; format: in vivo, Setaria viridis; conditions: scale 0 to 100
Method in brief: as §1

barnyardgrass = experiment: Test F preemergence test; format: in vivo, Echinochloa crus-galli
Method in brief: as §1

johnsongrass = experiment: Test F preemergence test; format: in vivo, Sorghum halepense; conditions: scale 0 to 100
Method in brief: as §1

field bindweed = experiment: Test F preemergence test; format: in vivo, Convolvulus arvensis; conditions: scale 0 to 100
Method in brief: as §1

common ragweed = experiment: Test F preemergence test; format: in vivo, Ambrosia elation; conditions: scale 0 to 100
Method in brief: as §1

common groundsel = experiment: Test F preemergence test; format: in vivo, Senecio vulgaris; conditions: scale 0 to 100
Method in brief: as §1

goosegrass = experiment: Test F preemergence test; format: in vivo, Eleusine indica; conditions: scale 0 to 100
Method in brief: as §1

Russian thistle = experiment: Test C pre-/postemergence test; format: in vivo, Salsola kali; conditions: for Plant response rating, Russian Thistle: 31 g ai/ha, scale 0 to 100 (0 no effect, 100 complete control)
From the text: Seeds of plant species selected from blackgrass (Alopecurus myosuroides), downy brome (Bromus tectorum), green foxtail (Setaria viridis), Italian ryegrass (Lolium multiflorum), wheat (Triticum aestivum), wild oat (Avena fatua), catchweed bedstraw (Galium aparine), Russian thistle (Salsola kali), […] (Cynodon dactylon), Surinam grass (Brachiaria decumbens), cocklebur (Xanthium strumarium), corn (Zea mays), crabgrass (Digitaria sanguinalis), woolly cupgrass (Eriochloa villosa), giant foxtail (Setaria faberii), Goosegrass (Eleusin indica), johnsongrass (Sorghum halepense), kochia (Kochia scoparia), lambsquarters (Chenopodium album), morningglory (Ipomoea coccinea), eastern black nightshade (Solanum ptycanthum), yellow nutsedge (Cyperus esculentus), pigweed (Amaranthus retroflexus), common ragweed (Ambrosia elation), soybean (Glycine max), common (oilseed) sunflower (Helianthus annuus), and velvetleaf (Abutilon theophrasti) were planted and treated preemergence with test chemicals formulated in a non-phytotoxic solvent mixture which included a surfactant. At the same time, plants selected from these crop and weed species and also winter barley (Hordeum vulgare), canarygrass (Phalaris minor), and chickweed (Stellaria media) were treated with postemergence applications of some of the test chemicals formulated in the same manner. Plants ranged in height from 2 to 18 cm (1- to 4-leaf stage) for postemergence treatments. […] At time of treatment, test pots were flooded to 3 cm above the soil surface, treated by application of test compounds directly to the paddy water, and then maintained at that water depth for the duration of the test. […] A dash (-) response means no test result.

large crabgrass = experiment: Test F preemergence test; format: in vivo, Digitaria sanguinalis; conditions: scale 0 to 100
Method in brief: as §1

common purslane = experiment: Test F preemergence test; format: in vivo, Portulaca oleracea; conditions: scale 0 to 100
Method in brief: as §1

annual bluegrass = experiment: Test F preemergence test; format: in vivo, Poa annua; conditions: scale 0 to 100
Method in brief: as §1

southern sandbur = experiment: Test F preemergence test; format: in vivo, Cenchrus echinatus; conditions: scale 0 to 100
Method in brief: as §1

naked crabgrass = experiment: Test F preemergence test; format: in vivo, Digitaria nuda; conditions: scale 0 to 100
Method in brief: as §1

[1] = 62 g ai/ha, Preemergence, scale 0 to 100

CC(Oc1c(C[S+]([O-])c2ccc(Cl)c[n+]2[O-])c(C(F)(F)F)nn1C)C(F)(F)F (stereo not drawn) [Compound 87]
Plant response rating, Morningglory (pitted morningglory; 16 g ai/ha, preemergence): 0
Morningglory plant response rating (pitted morningglory; 125 g ai/ha, preemergence): 90
Plant response rating, Morningglory (pitted morningglory; Preemergence, 62 g ai/ha): 35
Plant response rating, Morningglory (pitted morningglory; Preemergence, 31 g ai/ha): 0
Purple Nutsedge plant response rating (purple nutsedge; 125 g ai/ha, preemergence): 80
Plant response rating, Purple Nutsedge (purple nutsedge; 62 g ai/ha): 70
Plant response rating, Purple Nutsedge (purple nutsedge; 31 g ai/ha): 60
Plant response rating, Itchgrass (itchgrass; 16 g ai/ha, preemergence): 35
Itchgrass plant response rating (itchgrass; 125 g ai/ha, preemergence): 100
Plant response rating, Itchgrass (itchgrass; Preemergence, 62 g ai/ha): 100
Plant response rating, Itchgrass (itchgrass; Preemergence, 31 g ai/ha): 85
Plant response rating, Ryegrass, Italian (Italian ryegrass; 16 g ai/ha, preemergence): 100
Ryegrass, Italian plant response rating (Italian ryegrass; 125 g ai/ha, preemergence): 100
Plant response rating, Ryegrass, Italian (Italian ryegrass; Preemergence, 62 g ai/ha): 100
Plant response rating, Ryegrass, Italian (Italian ryegrass; Preemergence, 31 g ai/ha): 100
Plant response rating, Foxtail, Green (green foxtail; 16 g ai/ha, preemergence): 35
Foxtail, Green plant response rating (green foxtail; 125 g ai/ha, preemergence): 98
Plant response rating, Foxtail, Green (green foxtail; Preemergence, 62 g ai/ha): 80
Plant response rating, Foxtail, Green (green foxtail; Preemergence, 31 g ai/ha): 65
Plant response rating, Barnyardgrass (barnyardgrass; 16 g ai/ha, preemergence, scale 0 to 100 (0 no effect, 100 complete control)): 60
Barnyardgrass plant response rating (barnyardgrass; 125 g ai/ha, preemergence, scale 0 to 100): 100
Plant response rating, Barnyardgrass (barnyardgrass; Preemergence, 62 g ai/ha, scale 0 to 100): 100
Plant response rating, Barnyardgrass (barnyardgrass; Preemergence, 31 g ai/ha, scale 0 to 100): 75
Plant response rating, Johnsongrass (johnsongrass; 16 g ai/ha, preemergence): 40
Johnsongrass plant response rating (johnsongrass; 125 g ai/ha, preemergence): 100
Plant response rating, Johnsongrass (johnsongrass; Preemergence, 62 g ai/ha): 95
Plant response rating, Johnsongrass (johnsongrass; Preemergence, 31 g ai/ha): 75
Plant response rating, Field Bindweed (field bindweed; 16 g ai/ha, preemergence): 0
Field Bindweed plant response rating (field bindweed; 125 g ai/ha, preemergence): 40
Plant response rating, Field Bindweed (field bindweed; Preemergence, 62 g ai/ha): 20
Plant response rating, Field Bindweed (field bindweed; Preemergence, 31 g ai/ha): 0
Plant response rating, Ragweed (common ragweed; 16 g ai/ha, preemergence): 0
Ragweed plant response rating (common ragweed; 125 g ai/ha, preemergence): 90
Plant response rating, Ragweed (common ragweed; Preemergence, 62 g ai/ha): 70
Plant response rating, Ragweed (common ragweed; Preemergence, 31 g ai/ha): 0
Plant response rating, Groundsel (common groundsel; 16 g ai/ha, preemergence): 0
Groundsel plant response rating (common groundsel; 125 g ai/ha, preemergence): 65
Plant response rating, Groundsel (common groundsel; Preemergence, 62 g ai/ha): 0
Plant response rating, Groundsel (common groundsel; Preemergence, 31 g ai/ha): 0
Plant response rating, Goosegrass (goosegrass; 16 g ai/ha, preemergence): 70
Goosegrass plant response rating (goosegrass; 125 g ai/ha, preemergence): 100
Plant response rating, Goosegrass (goosegrass; Preemergence, 62 g ai/ha): 95
Plant response rating, Goosegrass (goosegrass; Preemergence, 31 g ai/ha): 80
Russian Thistle plant response rating (Russian thistle; [1]): 100
Russian Thistle plant response rating (Russian thistle; 125 g ai/ha, preemergence, scale 0 (no effect) to 100 (complete control)): 100
Plant response rating, Russian Thistle (Russian thistle; Preemergence): 100
Russian Thistle plant response rating (Russian thistle; preemergence, 250 g ai/ha, scale 0 (no effect) to 100 (complete control)): 100
Plant response rating, Crabgrass, Large (large crabgrass; 16 g ai/ha, preemergence): 30
Crabgrass, Large plant response rating (large crabgrass; 125 g ai/ha, preemergence): 100
Plant response rating, Crabgrass, Large (large crabgrass; Preemergence, 62 g ai/ha): 95
Plant response rating, Crabgrass, Large (large crabgrass; Preemergence, 31 g ai/ha): 65
Plant response rating, Purslane (common purslane; 16 g ai/ha, preemergence): 0
Purslane plant response rating (common purslane; 125 g ai/ha, preemergence): 100
Plant response rating, Purslane (common purslane; Preemergence, 62 g ai/ha): 70
Plant response rating, Purslane (common purslane; Preemergence, 31 g ai/ha): 20
Plant response rating, Bluegrass (annual bluegrass; 16 g ai/ha, preemergence): 35
Bluegrass plant response rating (annual bluegrass; 125 g ai/ha, preemergence): 100
Plant response rating, Bluegrass (annual bluegrass; Preemergence, 62 g ai/ha): 80
Plant response rating, Bluegrass (annual bluegrass; Preemergence, 31 g ai/ha): 70
Plant response rating, Sandbur (southern sandbur; 16 g ai/ha, preemergence): 50
Sandbur plant response rating (southern sandbur; 125 g ai/ha, preemergence): 100
Plant response rating, Sandbur (southern sandbur; Preemergence, 62 g ai/ha): 100
Plant response rating, Sandbur (southern sandbur; Preemergence, 31 g ai/ha): 100
Plant response rating, Crabgrass, Naked (naked crabgrass; 16 g ai/ha, preemergence): 95
Crabgrass, Naked plant response rating (naked crabgrass; 125 g ai/ha, preemergence): 100
Plant response rating, Crabgrass, Naked (naked crabgrass; Preemergence, 62 g ai/ha): 100
Plant response rating, Crabgrass, Naked (naked crabgrass; Preemergence, 31 g ai/ha): 100

Cn1nc(C(F)(F)F)c(CS(=O)(=O)c2cc(C(C)(C)C)cc[n+]2[O-])c1OC(F)F [Compound 25]
Russian Thistle plant response rating (Russian thistle; [1]): 100
Plant response rating, Russian Thistle (Russian thistle; Preemergence): 100
